Source: paper PMC7413516, “Antidepressant-like activity and safety profile evaluation of 1H-imidazo[2,1-f]purine-2,4(3H,8H)-dione derivatives as 5-HT1A receptor partial agonists” (PLoS ONE, 2020)
Like-named read-outs stand apart in the source and are kept apart here.

Assay: Pharmacokinetic study in mice, plasma and brain structures, LC/MS/MS
Format: in vivo, Swiss albino mice
Conditions: Swiss albino, mouse, ip, 1.25 mg/kg i.p.
Experimental: Blood samples from the Swiss albino mice were collected at 0 (pre-dose), 5, 15, 30, 60, 120, 240 and 480 min after a compound administration. The blood samples and brain structures were collected under general anesthesia induced by i.p. injection of 50 mg/kg ketamine plus 8 mg/kg xylazine. The blood samples were taken into heparinized tubes, immediately centrifuged at 1000 × g for 10 min, and plasma was collected. The plasma samples and brain structures were immediately frozen at -30°C and -80°C, respectively.
The plasma and tissue sample pretreatment procedure involved acetonitrile precipitation. A 5 μL aliquot of the IS working solution (100 ng/mL) was added to 50 μL of the collected mouse plasma sample, which was then vortex-mixed for 10 seconds. Thereafter, 200 μL of acetonitrile was added, vortexed during 20 min, and then centrifuged (1000 × g, 10 min). The supernatant (100 μL) was then transferred to insert placed in an autosampler vial, and a 10 μL volume of this was injected onto the HPLC column. Tissue samples were thawed before use, and whole hippocampus, striatum and frontal cortex were weighted and placed in a glass mortar and pestle tissue grinder and homogenized with an appropriate amount of phosphate buffer (pH 7.4) in 1:5 ratio. Afterward, 50 μL of tissue homogenates were transferred to new Eppendorf tubes and spiked with 5 μL of the internal standard working solution. All samples were stored on ice during the preparation process. This was followed by procedures like those described above.
The LC/ESI-MS/MS experiments were performed on an Applied Biosystems/MDS Sciex (Concord, Ontario, Canada) API 2000 triple quadrupole mass spectrometer equipped with an electrospray (ESI) ionization interface. This instrument was coupled to an Agilent 1100 (Agilent Technologies, Waldbronn, Germany) LC system. Data acquisition and processing were accomplished using Sciex Analyst 1.4.2 data collection and integration software.
An XBridge C18 (2.1 x 30 mm, 3.5 μm) analytical column (Waters, Milford, Massachusetts, USA) was used for compound separation. The temperatures of the column thermostat and the autosampler were set at 25°C and 10°C, respectively. The mobile phase consisted of a mixture of acetonitrile with addition of 0.1% formic acid (solvent A) and water with addition of 0.1% formic acid (solvent B) and was set at a flow rate of 0.6 mL/min. Starting amount of solvent A is 10%, isocratic elution from 0 to 3 min, and then gradient up to 90% of solvent A, and maintained to 10 min, and then gradient down to 10% of solvent A, and maintained to 15 min.
The ion source parameters were as follows: ion spray voltage: 5500 V; nebulizer gas (gas 1): 20 psi; turbo gas (gas 2): 25 psi; temperature of the heated nebulizer: 400°C; curtain gas: 40 psi; collision gas: 6 psi. Mass spectra were acquired by SRM with precursor/predominant product ion transitions for each analyte. The mass spectral Q1→Q3 transitions monitored for AZ-853, AZ-861 and for IS (nebivolol), were m/z 453.9→235.1; 504.3→285.1 and 406.2→151.1, respectively. The peak widths of precursor and product ions were set to 0.7 full width half-height. Quantification was done via peak area ratio.
Pharmacokinetic parameters were calculated by a non-compartmental approach from the average concentration values, using Phoenix WinNonlin software (Certara, Princeton, NJ 08540 USA). First order elimination rate constant (λz) was calculated by linear regression of time versus log concentration. Next, the area under the mean serum and tissue concentration versus time curve (AUC0→t) was estimated using the log-linear trapezoidal rule (1), where Ci is the plasma concentration measured at t1.
AUC0→t=∑i=1n((Ci+Ci+1)/2)∙(ti+1−ti). (1)
Area under the first-moment curve (AUMC0→t) was estimated by calculation of the total area under the first-moment curve using the Eq (2), where Ci is the plasma concentration measured at t1. AUMC0→t=∑i=1n((ti∙Ci+ti+1∙Ci+1)/2)∙(ti+1−ti). […]

[1] = hippocampus, 1.25 mg/kg, read-out: Concentration, hippocampus (individual animals)
[2] = hippocampus, 1.25 mg/kg, read-out: Concentration, hippocampus (Mean)
[3] = plasma, 1.25 mg/kg, read-out: Concentration, plasma (Mean)
[4] = plasma, 1.25 mg/kg, read-out: Concentration, plasma (individual animals)
[5] = striatum, 1.25 mg/kg, read-out: Concentration, striatum (Mean)
[6] = striatum, 1.25 mg/kg, read-out: Concentration, striatum (individual animals)

Question: With `Cn1c(=O)c2c(nc3n(CCCCN4CCN(c5cccc(C(F)(F)F)c5)CC4)ccn23)n(C)c1=O` [AZ-861, 1,3-dimethyl-8-(4-(4-(3-(trifluoromethyl)phenyl)piperazin-1-yl)butyl)-1H-imidazo[2,1-f]purine-2,4(3H,8H)-dione] as the compound, how does the concentration at 5 min [1] read?
Answer: 289 ng/mL

Question: What about the concentration at 15 min [2] of the same compound?
Answer: 307 ng/mL

Question: And the concentration at 15 min [1]?
Answer: 264 ng/mL

Question: What about the concentration at 30 min [2] of the same compound?
Answer: 253 ng/mL

Question: What about the concentration at 30 min [1] of the same compound?
Answer: 245 ng/mL

Question: What about the concentration at 60 min [2] of the same compound?
Answer: 96.9 ng/mL

Question: What about the concentration at 60 min [1] of the same compound?
Answer: 101 ng/mL

Question: And the concentration at 120 min [2]?
Answer: 54.3 ng/mL

Question: And the concentration at 120 min [1]?
Answer: 60.2 ng/mL

Question: What about the concentration at 240 min [2] of the same compound?
Answer: 19.6 ng/mL

Question: And the concentration at 240 min [1]?
Answer: 18.2 ng/mL

Question: And the concentration at 480 min [2]?
Answer: 15.8 ng/mL

Question: And the concentration at 480 min [1]?
Answer: 15.8 ng/mL

Question: What about the Cmax (hippocampus, 1.25 mg/kg, read-out: Cmax, hippocampus) of the same compound?
Answer: 308 ng/g

Question: What about the Tmax (hippocampus, 1.25 mg/kg, read-out: tmax, hippocampus (converted)) of the same compound?
Answer: 15 min

Question: And the CL/F (plasma)?
Answer: 590 mL/min/kg

Question: What about the AUC(0-t) (plasma, read-out: AUC0→t, plasma (converted)) of the same compound?
Answer: 34.5 ng·h/mL

Question: What about the MRT (plasma, read-out: MRT, plasma (converted)) of the same compound?
Answer: 52.3 min

Question: And the concentration at 5 min [3]?
Answer: 59.8 ng/mL

Question: And the concentration at 15 min [3]?
Answer: 36.3 ng/mL

Question: And the concentration at 15 min [4]?
Answer: 26.4 ng/mL

Question: What about the concentration at 30 min [3] of the same compound?
Answer: 24.8 ng/mL

Question: And the concentration at 60 min [3]?
Answer: 5.84 ng/mL

Question: What about the concentration at 60 min [4] of the same compound?
Answer: 7.37 ng/mL

Question: And the concentration at 120 min [3]?
Answer: 2.58 ng/mL

Question: And the concentration at 120 min [4]?
Answer: 1.84 ng/mL

Question: And the concentration at 240 min [3]?
Answer: 0.56 ng/mL

Question: And the concentration at 480 min [3]?
Answer: 0.27 ng/mL

Question: What about the concentration at 480 min [4] of the same compound?
Answer: 0.25 ng/mL

Question: What about the Vd/F (plasma, 1.25 mg/kg, plasma, read-out: Vd/F) of the same compound?
Answer: > 84 L/kg

Question: What about the Cmax (plasma, 1.25 mg/kg, read-out: Cmax, plasma) of the same compound?
Answer: 59.6 ng/mL

Question: And the Tmax (plasma, 1.25 mg/kg, read-out: tmax, plasma)?
Answer: ≤ 5 min

Question: What about the Kp (striatum, ratio of AUC values, read-out: Brain structure-to-plasma concentration ratio, striatum (S/P)) of the same compound?
Answer: 8.97

Question: And the AUC(0-t) (striatum, read-out: AUC0→t, striatum (converted))?
Answer: 309 ng·h/mL

Question: What about the MRT (striatum, read-out: MRT, striatum (converted)) of the same compound?
Answer: 56.9 min

Question: What about the concentration at 5 min [5] of the same compound?
Answer: 181 ng/mL

Question: And the concentration at 5 min [6]?
Answer: 190 ng/mL

Question: And the concentration at 15 min [5]?
Answer: 334 ng/mL

Question: And the concentration at 15 min [6]?
Answer: 377 ng/mL

Question: What about the concentration at 30 min [5] of the same compound?
Answer: 305 ng/mL

Question: And the concentration at 30 min [6]?
Answer: 341 ng/mL

Question: What about the concentration at 60 min [5] of the same compound?
Answer: 58.1 ng/mL

Question: What about the concentration at 60 min [6] of the same compound?
Answer: 61.6 ng/mL

Question: What about the concentration at 120 min [5] of the same compound?
Answer: 25.6 ng/mL

Question: What about the concentration at 120 min [6] of the same compound?
Answer: 28.4 ng/mL

Question: And the concentration at 240 min [5]?
Answer: 5.89 ng/mL

Question: What about the concentration at 240 min [6] of the same compound?
Answer: 6.95 ng/mL

Question: What about the concentration at 480 min [5] of the same compound?
Answer: 1.86 ng/mL

Question: And the concentration at 480 min [6]?
Answer: 1.65 ng/mL

Question: And the Cmax (striatum, 1.25 mg/kg, read-out: Cmax, striatum)?
Answer: 333 ng/g

Question: What about the Tmax (striatum, 1.25 mg/kg, read-out: tmax, striatum (converted)) of the same compound?
Answer: 15 min
